In assay [1] the test system is Xa factor. The experiment in a line: anti-Xa activity, Yin-Wessler test. It is filed as biochemical.
In a further assay the test system is AT III. The experiment in a line: affinity for AT III. It is filed as binding.
Another assay has as its system blood coagulation. Put plainly: APTT test, overall anticoagulant activity.
Assay [2] has as its system Xa factor. Put plainly: anti-Xa test using a chromogen substrate (method of Teien A.M. and Lie modified). It is filed as biochemical. Particulars: Xa factor (Sigma) 8 u/ml, substrate 1.33 mM, diluted human plasma, 37° C. The procedure: In a test using a chromogen substrate, this activity has even been 4000 anti-Xa units/mg (method of Teien A.M. and Lie modified; Thrombosis Research No. 10, 1977, 388-410).
This test consists of using the Xa factor marketed by the Sigma company in solution at 8 u/ml in physiological serum, the concentration of the substrate being 1.33 mM.
To carry out this test it is possible to proceed as follows.
10 μl of solution to be determined and 300 μl of human plasma diluted with Tris maleate buffer 0.02M, […] are mixed.
It is left to incubate one minute at 37° C.
100 μl of the above-said Xa factor (8 u/ml) are added and one minute later, the solution obtained is injected into the substrate.

Where only a bound is given, the exact number is not on record here.

The values below come from US4818816A, “Process for the organic synthesis of oligosaccharides and derivatives thereof” (Choay, S.A., priority 1981, dated 1989).

Turning to `O=C(O)[C@H]1O[C@@H](O[C@H]2[C@H](OS(=O)(=O)O)[C@@H](NS(=O)(=O)O)C(O)O[C@@H]2COS(=O)(=O)O)[C@H](O)[C@@H](O)[C@@H]1O[C@H]1O[C@H](COS(=O)(=O)O)[C@@H](O)[C@H](O)[C@H]1NS(=O)(=O)O` (stereo partly shown), the “anti-Xa activity (Yin-Wessler)” value in the assay on Xa factor [1] was approximately 7 u/mg.

As to `O=C(O)[C@H]1O[C@@H](O[C@H]2[C@H](OS(=O)(=O)O)[C@@H](NS(=O)(=O)O)[C@@H](O[C@H]3[C@H](O)[C@@H](OS(=O)(=O)O)[C@H](O[C@H]4[C@H](O)[C@@H](NS(=O)(=O)O)C(O)O[C@@H]4COS(=O)(=O)O)O[C@H]3C(=O)O)O[C@@H]2COS(=O)(=O)O)[C@H](O)[C@@H](O)[C@@H]1O[C@H]1O[C@H](COS(=O)(=O)O)[C@@H](O)[C@H](O)[C@H]1NS(=O)(=O)O` (stereo partly shown) [pentasaccharide 50], the “affinity for AT III” value in the assay on AT III was “high affinity”. The “overall anticoagulant activity (APTT test)” value with blood coagulation is 4 u/mg. In addition, in the assay with Xa factor [1], the “anti-Xa activity (Yin-Wessler)” value was not below 2000 u/mg. Further, the “Yin-Wessler titres compared with those of heparin” value with Xa factor [1] (compared with heparin) is listed as “distinctly higher”. The “selective inhibition activity of the activated X factor or Xa factor of the blood” value in the assay on Xa factor [1] (test not specified) is listed as “very high selective inhibition activity”. In the assay on Xa factor [2], the “anti-Xa activity in a test using a chromogen substrate” value came out at 4000 anti-Xa units/mg.
